Data reported in US20200017495A1, “NOVEL HETEROCYCLIC COMPOUNDS AND THEIR USE IN PREVENTING OR TREATING BACTERIAL INFECTIONS” (priority 2017, published 2020).

System: Escherichia coli (ECO) isolates
Experiment: MIC of compounds alone and combined with antibacterials, broth microdilution (CLSI)
Assay type: cell-based
Outline: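 Log-phase isolates were inoculated at a final 5.10^5 CFU/mL in cation-adjusted Mueller-Hinton broth and incubated 16-20 h at 35° C in ambient air. MIC was the lowest concentration preventing visible growth; for combinations, the antibacterial MIC was read at each compound concentration.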

C=CC1=C(C(=O)O)N2C(=O)[C@@H](NC(=O)/C(=N\OCC(=O)O)c3csc(N)n3)[C@H]2SC1 [FIX, Cefixime]
0.5 µg/mL: MIC ATB in combination (ECO UFR210, CLA @ 4 μg/mL) | MIC (strain ECO 4133, genotype TEM-30, OXA-1) | MIC (strain ECO 5302, genotype TEM-1, OXA-1) | MIC ATB in combination (strain ECO UFR187, with AF3 @ 8 μg/mL)
512 µg/mL: MIC (strain ECO UFR20, compound alone) | MIC (strain ECO UFR20, genotype SHV-1, CTX-M-15, OXA-1, OXA-232)
128 µg/mL: MIC (strain ECO 180070, genotype TEM-1, CTX-M-15) | MIC (strain ECO 190457, compound alone) | MIC (strain ECO 190457, genotype CTX-M-15, OXA-1) | MIC (strain ECO UFR32, genotype TEM-1, VEB-1, OXA-10) | MIC (strain ECO UFR62, genotype TEM-1, CTX-M-9, KPC-2)
1 µg/mL: MIC ATB in combination (ECO UFR209, CLA @ 4 μg/mL) | MIC (strain ECO UFR15, genotype TEM-1, OXA-48)
>128 µg/mL: MIC ATB in combination (ECO UFR184, CLA @ 4 μg/mL) | MIC ATB in combination (ECO UFR208, AF2 @ 8 μg/mL) | MIC ATB in combination (ECO UFR208, AF3 @ 8 μg/mL) | MIC ATB in combination (ECO UFR208, CLA @ 4 μg/mL) | MIC ATB in combination (ECO UFR212, CLA @ 4 μg/mL) | MIC ATB in combination (ECO URF20, CLA @ 4 μg/mL) | MIC (strain ECO 190317, compound alone) | MIC (strain ECO 190317, genotype TEM-1, SHV-12, CTX-M-15, OXA-1) | MIC (strain ECO 260096, genotype CTX-M-132) | MIC (strain ECO 260508, genotype TEM-1, CTX-M-15, OXA-1) | MIC (strain ECO UFR16, compound alone) | MIC (strain ECO UFR16, genotype TEM-1, CTX-M-15, OXA-1, OXA-48) | MIC (strain ECO UFR17, genotype TEM-1, CTX-M-15, CMY-2, OXA-1, OXA-181) | MIC (strain ECO UFR18, genotype CTX-M-15, OXA-204) | MIC (strain ECO UFR19, genotype CTX-M-15, CMY-2, OXA-1, OXA-204) | MIC (strain ECO UFR39, genotype CTX-M-15, NDM-1) | MIC (strain ECO UFR41, genotype TEM-1, CTX-M-15, CMY-2, OXA-1, NDM-4) | MIC (strain ECO UFR45, genotype TEM-1, CMY-4, OXA-1, OXA-48, VIM-1) | MIC (strain ECO UFR52, genotype TEM-1, SHV-12, IMP-8) | MIC (strain ECO UFR74, genotype SHV-1, DHA-1) | MIC (strain ECO UFR177, genotype TEM-1, CTX-M-15, OXA-1, OXA-2, NDM-1, RmtC, antibiotic alone) | MIC ATB in combination (strain ECO UFR177, with CLA @ 4 μg/mL) | MIC (strain ECO UFR178, genotype TEM-1, CTX-M-15, OXA-9, NDM-1, antibiotic alone) | MIC ATB in combination (strain ECO UFR178, with CLA @ 4 μg/mL) | MIC (strain ECO UFR179, genotype TEM-1, SHV-12, CTX-M-15, NDM-1, antibiotic alone) | MIC ATB in combination (strain ECO UFR179, with CLA @ 4 μg/mL) | MIC (strain ECO UFR180, genotype TEM-1, CMY-30, OXA-1, NDM-1, antibiotic alone) | MIC ATB in combination (strain ECO UFR180, with CLA @ 4 μg/mL) | MIC (strain ECO UFR181, genotype TEM-1, CTX-M-15, NDM-5, antibiotic alone) | MIC ATB in combination (strain ECO UFR181, with AF3 @ 8 μg/mL) | MIC ATB in combination (strain ECO UFR181, with CLA @ 4 μg/mL) | MIC (strain ECO UFR182, genotype CTX-M-15, OXA-1, NDM-6, antibiotic alone) | MIC ATB in combination (strain ECO UFR182, with CLA @ 4 μg/mL) | MIC (strain ECO UFR183, genotype CTX-M-15, OXA-1, NDM-7, antibiotic alone) | MIC ATB in combination (strain ECO UFR183, with AF2 @ 8 μg/mL) | MIC ATB in combination (strain ECO UFR183, with AF3 @ 8 μg/mL) | MIC ATB in combination (strain ECO UFR183, with CLA @ 4 μg/mL) | MIC (strain ECO UFR184, genotype CTX-M-15, CMY-4, OXA-1, OXA-204) | MIC (strain ECO UFR185, genotype OXA-48) | MIC (strain ECO UFR189, genotype TEM-1, CTX-M-15, OXA-48) | MIC (strain ECO UFR191, genotype TEM-1, CTX-M-24, OXA-48) | MIC (strain ECO UFR204, genotype TEM-1, CMY-4, OXA-48, VIM-1, antibiotic alone)
<0.25 µg/mL: MIC ATB in combination (ECO UFR184, AF2 @ 8 μg/mL) | MIC ATB in combination (ECO UFR184, AF3 @ 8 μg/mL) | MIC ATB in combination (ECO UFR209, AF2 @ 8 μg/mL) | MIC ATB in combination (ECO UFR209, AF3 @ 8 μg/mL) | MIC ATB in combination (ECO UFR210, AF2 @ 8 μg/mL) | MIC ATB in combination (ECO UFR210, AF3 @ 8 μg/mL) | MIC ATB in combination (ECO UFR211, AF2 @ 8 μg/mL) | MIC ATB in combination (ECO UFR211, AF3 @ 8 μg/mL) | MIC ATB in combination (ECO UFR212, AF2 @ 8 μg/mL) | MIC ATB in combination (ECO UFR212, AF3 @ 8 μg/mL) | MIC ATB in combination (strain ECO UFR177, with AF3 @ 8 μg/mL) | MIC ATB in combination (strain ECO UFR178, with AF2 @ 8 μg/mL) | MIC ATB in combination (strain ECO UFR178, with AF3 @ 8 μg/mL) | MIC ATB in combination (strain ECO UFR179, with AF2 @ 8 μg/mL) | MIC ATB in combination (strain ECO UFR179, with AF3 @ 8 μg/mL) | MIC ATB in combination (strain ECO UFR180, with AF2 @ 8 μg/mL) | MIC ATB in combination (strain ECO UFR180, with AF3 @ 8 μg/mL) | MIC ATB in combination (strain ECO UFR182, with AF2 @ 8 μg/mL) | MIC ATB in combination (strain ECO UFR182, with AF3 @ 8 μg/mL) | MIC ATB in combination (strain ECO UFR186, with AF2 @ 8 μg/mL) | MIC ATB in combination (strain ECO UFR186, with AF3 @ 8 μg/mL) | MIC ATB in combination (strain ECO UFR189, with AF2 @ 8 μg/mL) | MIC ATB in combination (strain ECO UFR189, with AF3 @ 8 μg/mL) | MIC ATB in combination (strain ECO UFR190, with AF2 @ 8 μg/mL) | MIC ATB in combination (strain ECO UFR190, with AF3 @ 8 μg/mL) | MIC ATB in combination (strain ECO UFR191, with AF2 @ 8 μg/mL) | MIC ATB in combination (strain ECO UFR191, with AF3 @ 8 μg/mL) | MIC ATB in combination (strain ECO UFR204, with AF2 @ 8 μg/mL)
2 µg/mL: MIC ATB in combination (ECO UFR211, CLA @ 4 μg/mL) | MIC ATB in combination (ECO URF20, AF3 @ 8 μg/mL) | MIC (strain ECO UFR86, genotype ompC-, ompF-) | MIC ATB in combination (strain ECO UFR187, with CLA @ 4 μg/mL)
4 µg/mL: MIC ATB in combination (strain ECO UFR189, with CLA @ 4 μg/mL) | MIC ATB in combination (strain ECO UFR191, with CLA @ 4 μg/mL)
64 µg/mL: MIC (strain ECO UFR175, genotype TEM-1, KPC-2, OXA-9) | MIC (strain ECO UFR176, genotype KPC-3, OXA-9*) | MIC (strain ECO UFR190, genotype CTX-M-24, OXA-48)
<=0.25 μg/mL: MIC ATB in combination (ECO URF20, AF2 @ 8 μg/mL) | MIC (strain ECO 131119, genotype TEM-1, OXA-48) | MIC (strain ECO RGN238, genotype OXA-1) | MIC ATB in combination (strain ECO UFR177, with AF2 @ 8 μg/mL) | MIC ATB in combination (strain ECO UFR181, with AF2 @ 8 μg/mL) | MIC ATB in combination (strain ECO UFR187, with AF2 @ 8 μg/mL)
8 µg/mL: MIC (strain ECO 200159, genotype TEM-1, CTX-M-14) | MIC (strain ECO 200259, genotype CTX-M-14) | MIC (strain ECO UFR174, genotype TEM-1, KPC-2, OXA-1) | MIC ATB in combination (strain ECO UFR186, with CLA @ 4 μg/mL) | MIC ATB in combination (strain ECO UFR190, with CLA @ 4 μg/mL)
16 µg/mL: MIC (strain ECO 190314, genotype CTX-M-1) | MIC (strain ECO 190549, genotype CTX-M-1)
32 µg/mL: MIC (strain ECO 200344, genotype CTX-M-1) | MIC (strain ECO 260304, genotype CTX-M-15) | MIC (strain ECO UFR61O, compound alone) | MIC (strain ECO UFR61O, genotype TEM-1, KPC-2) | MIC (strain ECO UFR186, genotype TEM-1, CTX-M-14, OXA-48) | MIC (strain ECO UFR187, genotype CTX-M-15, OXA-48)
